Measurements taken from patent publication US8426151B2, “Systems and methods for the detection of biomarkers” (Companion Diagnostics Inc., priority 2010, dated 2013).
Values joined by “and” are separate entries in the source; they are usually repeats but may differ in a detail not shown here. Equal entries are not always repeated.

Legend:
peroxidase = assay: Peroxidase assay in saliva (Amplex Red); type: biochemical; conditions: 500 ppm, 30 minutes, FIGS. 26-29
Description: To determine the effect of various GRAS compounds as inhibitors of peroxidase activity, a standard assay using Amplex® Red (Life Technologies), which releases a fluorescent oxidation product.
The test compounds, such as GRAS materials or cocktails of same, were prepared at a concentration of 500 ppm in distilled water. For the assay, 50 μl samples of test compounds were mixed with 20-30 μl of saliva (either “pooled” or “unpooled”) prior to the addition of Amplex® Red. Following the mixture of the test compounds with saliva, 50 μl of Amplex® Red/HRP working solution (See Protocol for Invitrogen Assay #A22188, which is incorporated herein in its entirety), which has a concentration of 100 μM of Amplex® Red, is added to the test compound/saliva mixture. […] Reactions were allowed to run for 30 minutes during these assays.

α-amylase = biological target: T1, α-amylase (Homo sapiens, UniProt P0DUB6); assay: α-Amylase inhibition saliva screening (2-chloro-p-nitrophenol-maltotriose substrate, 405 nm); type: biochemical; conditions: for absorbance at 405 nm, single readings: 37° C., beside 100% Saliva Control; for Ave: mean of four readings at 405 nm
T1 sequence (P0DUB6 16-511): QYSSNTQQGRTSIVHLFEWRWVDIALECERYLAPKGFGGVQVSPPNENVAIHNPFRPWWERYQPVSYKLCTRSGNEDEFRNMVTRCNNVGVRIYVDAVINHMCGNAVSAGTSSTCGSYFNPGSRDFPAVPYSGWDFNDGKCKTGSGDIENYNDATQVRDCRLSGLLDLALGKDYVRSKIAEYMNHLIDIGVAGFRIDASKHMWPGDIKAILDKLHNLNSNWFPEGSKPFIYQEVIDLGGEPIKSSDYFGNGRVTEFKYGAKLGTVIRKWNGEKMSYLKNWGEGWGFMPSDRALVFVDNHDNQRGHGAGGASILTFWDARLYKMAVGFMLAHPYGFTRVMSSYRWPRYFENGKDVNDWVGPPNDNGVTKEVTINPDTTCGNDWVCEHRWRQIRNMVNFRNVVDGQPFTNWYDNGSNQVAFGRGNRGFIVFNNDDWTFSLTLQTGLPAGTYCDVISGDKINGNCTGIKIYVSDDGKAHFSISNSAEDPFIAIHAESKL
Description: Enzymatic activity of α-amylase on the substrate yields 2-chloro-p-nitrophenol, which can be measured spectrophotometrically at 405 nm. The amount of α-amylase activity present in the experimental sample is directly proportional to the increase in absorbance at 405 nm.

| Molecule | peroxidase inhibition (peroxidase) | absorbance at 405 nm, single readings (α-amylase; 0 min, sulfate hydrate) | Ave (α-amylase; 0 min) | absorbance at 405 nm, single readings (α-amylase; 5 min, sulfate hydrate) | Ave (α-amylase; 5 min) | absorbance at 405 nm, single readings (α-amylase; 15 min, sulfate hydrate) | Ave (α-amylase; 15 min) | absorbance at 405 nm, single readings (α-amylase; 0 min) | absorbance at 405 nm, single readings (α-amylase; 5 min) |
| --- | --- | --- | --- | --- | --- | --- | --- | --- | --- |
| Cn1c(=O)c2c(ncn2C)n(C)c1=O [CDI #33, Caffeine] | significant peroxidase inhibition capabilities |  |  |  |  |  |  |  |  |
| COc1ccc(O)c(C(C)(C)C)c1 [CDI-039, 3-tert--butyl-hydroxyanisole] | significant peroxidase inhibition capabilities |  |  |  |  |  |  |  |  |
| Aluminum sulfate hydrate [CDI-34] |  | 0.40 and 0.36 and 0.45 | 0.40 | 0.49 and 0.50 and 0.52 | 0.50 | 0.53 and 0.61 and 0.54 and 0.56 | 0.56 |  |  |
| Aluminum potassium sulfate dodecahydrate [CDI-42] | significant peroxidase inhibition capabilities |  | 0.92 |  | 1.85 |  | 2.29 | 0.80 and 0.90 and 0.84 | 1.80 |
